Test [1] addresses T1, Urotensin-2 receptor (Rattus norvegicus) (UniProt P49684).
T1 sequence (whole entry): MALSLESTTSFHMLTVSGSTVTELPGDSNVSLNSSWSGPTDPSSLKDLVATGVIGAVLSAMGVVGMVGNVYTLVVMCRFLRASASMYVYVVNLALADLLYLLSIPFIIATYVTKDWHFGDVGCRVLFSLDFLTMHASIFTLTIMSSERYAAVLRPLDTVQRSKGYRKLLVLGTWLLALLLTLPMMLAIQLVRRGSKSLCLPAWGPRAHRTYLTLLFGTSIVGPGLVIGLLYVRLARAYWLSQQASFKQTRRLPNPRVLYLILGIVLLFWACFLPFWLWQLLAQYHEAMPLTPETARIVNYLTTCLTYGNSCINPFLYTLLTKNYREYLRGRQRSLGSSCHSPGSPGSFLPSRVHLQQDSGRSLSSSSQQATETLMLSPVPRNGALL
Briefly: Agonist activity at urotensin-2 receptor in Sprague-Dawley rat aortic rings assessed as KCl-induced vasoconstriction at 3 X 10^-11 to 3 X 10^-6 M relative to control.

The target in test [2] is T2, Urotensin-2 receptor (Rattus norvegicus, UniProt P49684).
T2 sequence (P49684 whole entry): T1 sequence (whole entry)
Briefly: Agonist activity at urotensin-2 receptor in Sprague-Dawley rat aortic rings assessed as KCl-induced vasoconstriction.

Test [3] deals with T3, Urotensin-2 receptor (Homo sapiens, UniProt Q9UKP6).
T3 sequence (Q9UKP6 whole entry): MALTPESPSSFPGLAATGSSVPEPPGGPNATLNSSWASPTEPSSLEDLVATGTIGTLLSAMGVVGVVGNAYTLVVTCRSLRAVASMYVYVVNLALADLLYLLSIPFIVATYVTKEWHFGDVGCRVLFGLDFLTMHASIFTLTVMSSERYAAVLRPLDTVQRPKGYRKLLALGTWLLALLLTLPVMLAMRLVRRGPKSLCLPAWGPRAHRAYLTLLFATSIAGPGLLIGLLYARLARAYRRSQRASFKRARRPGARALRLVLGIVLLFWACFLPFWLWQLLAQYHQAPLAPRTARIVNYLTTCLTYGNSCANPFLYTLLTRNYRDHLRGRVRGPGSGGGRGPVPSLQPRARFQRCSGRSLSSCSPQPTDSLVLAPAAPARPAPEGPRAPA
Briefly: Displacement of [125I]-Urotensin-2 from human GPR14 expressed in CHO cells after 90 mins by gamma counting analysis. Type of test: cell-based.

The source made the active and inactive calls. The rule behind the calls is not given here.

For the compound `CC(C)[C@H](NC(=O)[C@@H]1CSSC(C)(C)[C@@H](NC(=O)[C@H](C)N)C(=O)N[C@@H](Cc2ccccc2)C(=O)N2CCc3ccccc3[C@H]2C(=O)N[C@@H](CCCCN)C(=O)N[C@@H](Cc2ccc(O)cc2)C(=O)N1)C(=O)O`, the Emax entry in test [1] was “inactive”.
`CC(C)[C@H](NC(=O)[C@@H]1CSSC(C)(C)[C@H](NC(=O)[C@H](C)N)C(=O)N[C@@H](Cc2ccccc2)C(=O)N2CCc3ccccc3[C@H]2C(=O)N[C@@H](CCCCN)C(=O)N[C@@H](Cc2ccc(O)cc2)C(=O)N1)C(=O)O`: the EC50 result at Urotensin-2 receptor [2] was “Not Active”.
On to `CC(C)[C@H](NC(=O)[C@@H]1CSSC[C@H](NC(=O)[C@H](C)N)C(=O)N[C@@H](Cc2ccccc2)C(=O)N2Cc3[nH]c4ccccc4c3C[C@H]2C(=O)N[C@@H](CCCN)C(=O)N[C@@H](Cc2ccc(O)cc2)C(=O)N1)C(=O)O`, for which, in test [1], the Emax entry was “inactive”. Further, on Urotensin-2 receptor [2], the EC50 entry is recorded as “Not Active”. In addition, the IC50 on Urotensin-2 receptor [3] (read-out: pIC50 (converted)) was above 10000 nM.
`CC(C)[C@H](NC(=O)[C@@H]1CSSC[C@H](NC(=O)[C@H](C)N)C(=O)N[C@@H](Cc2ccccc2)C(=O)N[C@@H]2Cc3c([nH]c4ccccc34)CN(C2=O)[C@@H](CCCCN)C(=O)N[C@@H](Cc2ccc(O)cc2)C(=O)N1)C(=O)O`: in test [1], the maximum response (Emax) was 148%. Besides, the EC50 on Urotensin-2 receptor [2] (read-out: EC50) was 159 nM; at Urotensin-2 receptor [2] (read-out: pEC50 (converted)), 162 nM. In addition, the IC50 at Urotensin-2 receptor [3] (read-out: IC50) was determined as 60 nM.
In the case of `CC(C)[C@H](NC(=O)[C@@H]1CSSC[C@H](NC(=O)[C@H](C)N)C(=O)N[C@@H](Cc2ccccc2)C(=O)N[C@@H](Cc2cccc3ccccc23)C(=O)N[C@@H](CCCCN)C(=O)N[C@@H](Cc2ccc(O)cc2)C(=O)N1)C(=O)O`, the Emax in test [1] is 86%. Besides, on Urotensin-2 receptor [2] (read-out: EC50), the EC50 was found to be 54 nM. Besides, the IC50 at Urotensin-2 receptor [3] (read-out: IC50) worked out at 17 nM.
In the case of `CC(C)[C@H](NC(=O)[C@@H]1CSSC[C@@H](NC(=O)[C@H](CC(=O)O)NC(=O)[C@H]2CCCN2C(=O)[C@@H](NC(=O)[C@@H](N)CCC(=O)O)[C@@H](C)O)C(=O)N[C@H](Cc2ccccc2)C(=O)N[C@@H](Cc2c[nH]c3ccccc23)C(=O)N[C@H](CCCCN)C(=O)N[C@@H](Cc2ccc(O)cc2)C(=O)N1)C(=O)O`, the Emax in test [1] is 117%.
Turning to `CC(C)[C@H](NC(=O)[C@@H]1CSSC[C@H](NC(=O)[C@H](C)N)C(=O)N[C@@H](Cc2ccccc2)C(=O)N[C@@H](Cc2c[nH]c3ccccc23)C(=O)N[C@@H](CCCCN)C(=O)N[C@@H](Cc2ccc(O)cc2)C(=O)N1)C(=O)O`, the Emax in test [1] came out at 100%. The EC50 at Urotensin-2 receptor [2] (read-out: EC50) is 7 nM; at Urotensin-2 receptor [2] (read-out: pEC50 (converted)), 8.13 nM.
As to `CC(C)[C@H](NC(=O)[C@@H]1CSSC[C@H](NC(=O)[C@H](C)N)C(=O)N[C@@H](Cc2ccccc2)C(=O)N[C@@H](c2ccccc2)C(=O)N[C@@H](CCCCN)C(=O)N[C@@H](Cc2ccc(O)cc2)C(=O)N1)C(=O)O`, the Emax in test [1] was 102%. For the same compound, the EC50 on Urotensin-2 receptor [2] (read-out: EC50) came out at 251 nM.
In the case of `CC(C)[C@H](NC(=O)[C@@H]1CSSC[C@H](NC(=O)[C@H](CC(=O)O)NC(=O)[C@@H]2CCCN2C(=O)[C@@H](NC(=O)[C@@H](N)CCC(=O)O)[C@@H](C)O)C(=O)N[C@@H](Cc2ccccc2)C(=O)N[C@@H](Cc2c[nH]c3ccccc23)C(=O)N[C@@H](CCCCN)C(=O)N[C@@H](Cc2ccc(O)cc2)C(=O)N1)C(=O)O` [HUMAN UROTENSIN II], the EC50 on Urotensin-2 receptor [2] (read-out: EC50) was 1 nM; at Urotensin-2 receptor [2] (read-out: pEC50 (converted)) it was 0.832 nM.
`CC(C)[C@H](NC(=O)[C@@H]1CSSC[C@H](NC(=O)[C@H](C)N)C(=O)N[C@@H](Cc2ccccc2)C(=O)N2Cc3[nH]c4ccccc4c3C[C@H]2C(=O)N[C@@H](CCCCN)C(=O)N[C@@H](Cc2ccc(O)cc2)C(=O)N1)C(=O)O`: in test [1], the maximal effect (Emax) was 139%.
As for `CC(C)[C@H](NC(=O)[C@@H]1CSSC[C@H](NC(=O)[C@H](C)N)C(=O)N[C@@H](Cc2ccccc2)C(=O)N2Cc3ccccc3C[C@@H]2C(=O)N[C@@H](CCCCN)C(=O)N[C@@H](Cc2ccc(O)cc2)C(=O)N1)C(=O)O`, in test [1], the Emax was 128%. Besides, the EC50 on Urotensin-2 receptor [2] (read-out: EC50) was 259 nM; on Urotensin-2 receptor [2] (read-out: pEC50 (converted)), 832 nM.

Source of the values: ChEMBL document CHEMBL3102770, “Development and pharmacological characterization of conformationally constrained urotensin II-related peptide agonists” (J Med Chem, 2013).
